Results from EP2276483B1, “SOLID FORMS COMPRISING (+)-2-[1-(3-ETHOXY-4-METHOXYPHENYL)-2-METHYLSULFONYLETHYL]-4-ACETYLAMINOISOINDOLINE-1,3-DIONE, COMPOSITIONS THEREOF, AND USES THEREOF” (CELGENE CORPORATION, priority 2008, dated 2009).

How the values were obtained:
IL-8 = assay: Zymosan-induced IL-8 production in human neutrophils; format: cell-based; settings: Neutrophil
Experimental: Zymosan A, or the heat-killed yeast Saccharomyces cerevisiae, binds to the adhesion molecule Mac-1 on the neutrophil surface and triggers phagocytosis, cell activation and IL-8 production. Zymosan-induced IL-8 production was measured as previously described (Au et al., 1998, Brit. J. Pharm., 123:1260-1266) with the following modifications. Human neutrophils were purified as described above, plated in 96-well tissue culture plates at 3x10^5 cells/well in complete medium, treated with compounds at 10, 2, 0.4, 0.08, 0.016, 0.0032, 0.00064, and 0 µM in duplicate in a final DMSO concentration of 0.1% for 1 hour at 37°C 5% CO2. Neutrophils were then stimulated with unopsonized, boiled Zymosan A (Sigma) at 2.5 x 10^5 particles/well for 18 hours. Supernatants were harvested and tested for IL-8 by ELISA (R&D Systems).

[1] = target: PDE3 from human platelets (Homo sapiens, UniProt Q14432); assay: PDE3 enzyme assay; format: biochemical
PDE3 from human platelets, sequence (Q14432 whole entry): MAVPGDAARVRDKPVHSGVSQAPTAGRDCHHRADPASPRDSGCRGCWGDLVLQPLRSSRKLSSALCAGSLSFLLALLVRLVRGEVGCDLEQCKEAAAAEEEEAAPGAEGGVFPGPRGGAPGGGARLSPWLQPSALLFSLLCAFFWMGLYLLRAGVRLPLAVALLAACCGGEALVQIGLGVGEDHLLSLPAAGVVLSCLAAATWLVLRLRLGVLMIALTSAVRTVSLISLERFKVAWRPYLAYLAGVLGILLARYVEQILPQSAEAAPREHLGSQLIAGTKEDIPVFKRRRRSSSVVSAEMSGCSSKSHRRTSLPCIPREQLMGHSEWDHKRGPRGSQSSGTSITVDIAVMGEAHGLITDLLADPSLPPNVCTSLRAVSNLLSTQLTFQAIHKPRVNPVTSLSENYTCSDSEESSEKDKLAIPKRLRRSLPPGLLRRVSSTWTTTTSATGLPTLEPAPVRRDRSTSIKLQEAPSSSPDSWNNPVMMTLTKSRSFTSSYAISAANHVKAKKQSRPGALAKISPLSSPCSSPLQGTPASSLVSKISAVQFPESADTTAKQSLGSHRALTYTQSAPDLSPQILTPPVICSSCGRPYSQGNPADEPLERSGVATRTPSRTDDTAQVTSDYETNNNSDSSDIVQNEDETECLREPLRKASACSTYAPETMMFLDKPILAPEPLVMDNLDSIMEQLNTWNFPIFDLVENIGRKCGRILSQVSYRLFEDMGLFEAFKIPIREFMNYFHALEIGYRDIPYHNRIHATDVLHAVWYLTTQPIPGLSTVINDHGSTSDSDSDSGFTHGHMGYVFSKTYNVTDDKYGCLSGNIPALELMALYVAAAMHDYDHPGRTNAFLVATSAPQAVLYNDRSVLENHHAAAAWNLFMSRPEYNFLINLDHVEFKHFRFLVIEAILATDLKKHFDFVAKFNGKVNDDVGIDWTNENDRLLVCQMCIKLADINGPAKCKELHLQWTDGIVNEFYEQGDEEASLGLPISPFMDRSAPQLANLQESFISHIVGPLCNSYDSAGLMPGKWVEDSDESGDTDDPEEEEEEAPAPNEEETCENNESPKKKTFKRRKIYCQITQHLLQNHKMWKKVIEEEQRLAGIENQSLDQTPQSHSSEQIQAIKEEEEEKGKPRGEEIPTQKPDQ

conscious ferret = assay: Emesis and behavioral changes in conscious ferret; format: in vivo, ferrets (Mustela Pulorius Euro); settings: for Ataxia / Backward walking / Flattened posture / Lip licking / Mouth clawing / Panting / Retches / Salivation / Vomits: severity (number of animals that responded)
Experimental: The conscious ferret model has been used to investigate anti-inflammatory, emetic and behavioral effects of PDE4 inhibitors when administered by the oral (p.o.) route. From these experiments, a therapeutic index (TI) for each PDE4 inhibitor may be determined. The TI has been calculated by dividing the threshold dose for causing emetic episodes and behavioral changes by the anti-inflammatory dose (dose that causes 50% inhibition of the LPS-induced neutrophilia).
PDE4 inhibitors were administered orally (p.o.), at doses initially of […], but subsequently up to 30 mg/kg in order to establish whether the TI was 10 or higher, and/or at lower doses to establish the minimum dose to cause 50% inhibition of neutrophilia. Ferrets were fasted overnight but allowed free access to water. The animals were orally dosed with vehicle or PDE4 inhibitor using a 15 cm dosing needle that was passed down the back of the throat into the oesophagus. After dosing, the animals were returned to holding cages fitted with Perspex doors to allow observation, and given free access to water. After dosing, the animals were constantly observed and any emesis or behavioral changes were recorded. The animals were allowed access to food 60 to 90 minutes after p.o. dosing.
Thirty minutes after p.o. dosing with compound or vehicle control, the ferrets were placed into sealed Perspex containers and exposed to an aerosol of LPS (100 µg/ml) for 10 minutes. Aerosols of LPS were generated by a nebulizer (DeVilbiss, USA) and this was directed into the Perspex exposure chamber. Following a 10 minute exposure period, the animals were returned to the holding cages and allowed free access to water, and at a later stage, food. Observation continued for a period of at least 2.5 hours post p.o. dosing and emetic episodes and behavioral changes were recorded.
2. Emetic episodes - the number of vomits and retches were counted.
3. Behavioral changes - the following behavioral effects were noted: salivation, panting, mouth clawing, flattened posture, ataxia, arched back and backward walking. Any behavioral changes were semi-quantified by applying a severity rating (mild, moderate or severe).
4. The TI was calculated as the highest dose found to not cause emetic episodes divided by the lowest dose found to inhibit pulmonary neutrophilia by 50% or more.
Numbers in parentheses refer to the number of animals that responded. The numbers of animals in each group range from 4 to 22.
From these experiments, a therapeutic index (TI) was determined for each compound by dividing the threshold dose for inducing emetic episodes by the ED50 value for inhibiting the pulmonary neutrophilia. […] Table 4. Summary of the effective doses (ED50) for inhibition of LPS-induced pulmonary neutrophilia and induction of emesis and the therapeutic index derived from these values

SMILES: CCOc1cc(C(CS(C)(=O)=O)N2C(=O)c3cccc(NC(C)=O)c3C2=O)ccc1OC (single isomer, unassigned; (+)) [Compound A, (+)-2-[1-(3-ethoxy-4-methoxyphenyl)-2-methylsulfonylethyl]-4-acetylaminoisoindoline-1,3-dione]
- IC50 (IL-8): 94 nM
- PDE Specificity Ratio PDE4/PDE3 ([1]; from above data): >1200 fold
- inhibition at 10 µM ([1]; read-out: PDE3 (% inhib at 10 µM)): 20%
- Ataxia (conscious ferret; 0.1 mg/kg oral): None
- Backward walking (conscious ferret; 0.1 mg/kg oral): Mild (3/5)
- Flattened posture (conscious ferret; 0.1 mg/kg oral): Mild (2/5)
- Lip licking (conscious ferret; 0.1 mg/kg oral): Mild (4/5)
- Mouth clawing (conscious ferret; 0.1 mg/kg oral): None
- Panting (conscious ferret; 0.1 mg/kg oral): None
- Retches (conscious ferret; 0.1 mg/kg oral): None
- Salivation (conscious ferret; 0.1 mg/kg oral): None
- Vomits (conscious ferret; 0.1 mg/kg oral): None
- Ataxia (conscious ferret; 0.3 mg/kg oral): None
- Backward walking (conscious ferret; 0.3 mg/kg oral): Mild (4/6)
- Flattened posture (conscious ferret; 0.3 mg/kg oral): Mild (2/6)
- Lip licking (conscious ferret; 0.3 mg/kg oral): Mild (3/6)
- Mouth clawing (conscious ferret; 0.3 mg/kg oral): None
- Panting (conscious ferret; 0.3 mg/kg oral): None
- Retches (conscious ferret; 0.3 mg/kg oral): None
- Salivation (conscious ferret; 0.3 mg/kg oral): None
- Vomits (conscious ferret; 0.3 mg/kg oral): None
- Ataxia (conscious ferret; 1.0 mg/kg oral): None
- Backward walking (conscious ferret; 1.0 mg/kg oral): Mild (4/6)
- Flattened posture (conscious ferret; 1.0 mg/kg oral): Mild (2/6)
- Lip licking (conscious ferret; 1.0 mg/kg oral): Mild (6/6)
- Mouth clawing (conscious ferret; 1.0 mg/kg oral): None
- Panting (conscious ferret; 1.0 mg/kg oral): None
- Retches (conscious ferret; 1.0 mg/kg oral): None
- Salivation (conscious ferret; 1.0 mg/kg oral): None
- Vomits (conscious ferret; 1.0 mg/kg oral): None
- Ataxia (conscious ferret; 3.0 mg/kg oral): None
- Backward walking (conscious ferret; 3.0 mg/kg oral): Moderate (5/8)
- Flattened posture (conscious ferret; 3.0 mg/kg oral): Marked (7/8)
- Lip licking (conscious ferret; 3.0 mg/kg oral): Mild (2/8)
- Mouth clawing (conscious ferret; 3.0 mg/kg oral): Mild (1/8)
- Panting (conscious ferret; 3.0 mg/kg oral): None
- Retches (conscious ferret; 3.0 mg/kg oral): None
- Salivation (conscious ferret; 3.0 mg/kg oral): None
- Vomits (conscious ferret; 3.0 mg/kg oral): None
- Ataxia (conscious ferret; 10 mg/kg oral): None
- Backward walking (conscious ferret; 10 mg/kg oral): Marked (6/6)
- Flattened posture (conscious ferret; 10 mg/kg oral): Marked (6/6)
- Lip licking (conscious ferret; 10 mg/kg oral): Moderate (5/6)
- Mouth clawing (conscious ferret; 10 mg/kg oral): Mild (1/6)
- Panting (conscious ferret; 10 mg/kg oral): None
- Salivation (conscious ferret; 10 mg/kg oral): Mild (1/6)
- Vomits (conscious ferret; 10 mg/kg oral): None
- behavioral changes (severity) (conscious ferret; 10 mg/kg, p.o.): mild or moderate
- emetic episodes (retching and vomiting) (conscious ferret; 10 mg/kg, p.o., in 2/6 ferrets): some retching but no frank emesis
- Ataxia (conscious ferret; 30 mg/kg oral): Mild (3/4)
- Backward walking (conscious ferret; 30 mg/kg oral): Mild (2/4)
- Flattened posture (conscious ferret; 30 mg/kg oral): Marked (4/4)
- Lip licking (conscious ferret; 30 mg/kg oral): Moderate (4/4)
- Mouth clawing (conscious ferret; 30 mg/kg oral): Marked (4/4)
- Panting (conscious ferret; 30 mg/kg oral): Mild (1/4)
- Retches (conscious ferret; 30 mg/kg oral): Marked (3/4)
- Salivation (conscious ferret; 30 mg/kg oral): Moderate (3/4)
- Vomits (conscious ferret; 30 mg/kg oral): Moderate (3/4)
- behavioral changes (severity) (conscious ferret; 30 mg/kg, p.o.): pronounced behavioral changes
- emetic episodes (retching and vomiting) (conscious ferret; 30 mg/kg, p.o., in 3/4 animals): moderate to marked emesis
- emetic episodes (retching and vomiting) (conscious ferret; 0.1-3 mg/kg, p.o.): no emetic episodes
- behavioral changes (severity) (conscious ferret; 0.1-3 mg/kg, p.o., flattened posture, lip licking and backward walking): mild
- Threshold emetic dose (conscious ferret; conscious ferret, p.o.): 10 mg/kg
- Therapeutic index (conscious ferret; threshold emetic dose divided by ED50 for pulmonary neutrophilia): 12
